Biological target: LRRK2 (Homo sapiens, UniProt Q5S007, G2019S)
Test: loss of constitutive phosphorylation in cells
Format: cell-based

Chain of LRRK2 (Q5S007 whole entry G2019S): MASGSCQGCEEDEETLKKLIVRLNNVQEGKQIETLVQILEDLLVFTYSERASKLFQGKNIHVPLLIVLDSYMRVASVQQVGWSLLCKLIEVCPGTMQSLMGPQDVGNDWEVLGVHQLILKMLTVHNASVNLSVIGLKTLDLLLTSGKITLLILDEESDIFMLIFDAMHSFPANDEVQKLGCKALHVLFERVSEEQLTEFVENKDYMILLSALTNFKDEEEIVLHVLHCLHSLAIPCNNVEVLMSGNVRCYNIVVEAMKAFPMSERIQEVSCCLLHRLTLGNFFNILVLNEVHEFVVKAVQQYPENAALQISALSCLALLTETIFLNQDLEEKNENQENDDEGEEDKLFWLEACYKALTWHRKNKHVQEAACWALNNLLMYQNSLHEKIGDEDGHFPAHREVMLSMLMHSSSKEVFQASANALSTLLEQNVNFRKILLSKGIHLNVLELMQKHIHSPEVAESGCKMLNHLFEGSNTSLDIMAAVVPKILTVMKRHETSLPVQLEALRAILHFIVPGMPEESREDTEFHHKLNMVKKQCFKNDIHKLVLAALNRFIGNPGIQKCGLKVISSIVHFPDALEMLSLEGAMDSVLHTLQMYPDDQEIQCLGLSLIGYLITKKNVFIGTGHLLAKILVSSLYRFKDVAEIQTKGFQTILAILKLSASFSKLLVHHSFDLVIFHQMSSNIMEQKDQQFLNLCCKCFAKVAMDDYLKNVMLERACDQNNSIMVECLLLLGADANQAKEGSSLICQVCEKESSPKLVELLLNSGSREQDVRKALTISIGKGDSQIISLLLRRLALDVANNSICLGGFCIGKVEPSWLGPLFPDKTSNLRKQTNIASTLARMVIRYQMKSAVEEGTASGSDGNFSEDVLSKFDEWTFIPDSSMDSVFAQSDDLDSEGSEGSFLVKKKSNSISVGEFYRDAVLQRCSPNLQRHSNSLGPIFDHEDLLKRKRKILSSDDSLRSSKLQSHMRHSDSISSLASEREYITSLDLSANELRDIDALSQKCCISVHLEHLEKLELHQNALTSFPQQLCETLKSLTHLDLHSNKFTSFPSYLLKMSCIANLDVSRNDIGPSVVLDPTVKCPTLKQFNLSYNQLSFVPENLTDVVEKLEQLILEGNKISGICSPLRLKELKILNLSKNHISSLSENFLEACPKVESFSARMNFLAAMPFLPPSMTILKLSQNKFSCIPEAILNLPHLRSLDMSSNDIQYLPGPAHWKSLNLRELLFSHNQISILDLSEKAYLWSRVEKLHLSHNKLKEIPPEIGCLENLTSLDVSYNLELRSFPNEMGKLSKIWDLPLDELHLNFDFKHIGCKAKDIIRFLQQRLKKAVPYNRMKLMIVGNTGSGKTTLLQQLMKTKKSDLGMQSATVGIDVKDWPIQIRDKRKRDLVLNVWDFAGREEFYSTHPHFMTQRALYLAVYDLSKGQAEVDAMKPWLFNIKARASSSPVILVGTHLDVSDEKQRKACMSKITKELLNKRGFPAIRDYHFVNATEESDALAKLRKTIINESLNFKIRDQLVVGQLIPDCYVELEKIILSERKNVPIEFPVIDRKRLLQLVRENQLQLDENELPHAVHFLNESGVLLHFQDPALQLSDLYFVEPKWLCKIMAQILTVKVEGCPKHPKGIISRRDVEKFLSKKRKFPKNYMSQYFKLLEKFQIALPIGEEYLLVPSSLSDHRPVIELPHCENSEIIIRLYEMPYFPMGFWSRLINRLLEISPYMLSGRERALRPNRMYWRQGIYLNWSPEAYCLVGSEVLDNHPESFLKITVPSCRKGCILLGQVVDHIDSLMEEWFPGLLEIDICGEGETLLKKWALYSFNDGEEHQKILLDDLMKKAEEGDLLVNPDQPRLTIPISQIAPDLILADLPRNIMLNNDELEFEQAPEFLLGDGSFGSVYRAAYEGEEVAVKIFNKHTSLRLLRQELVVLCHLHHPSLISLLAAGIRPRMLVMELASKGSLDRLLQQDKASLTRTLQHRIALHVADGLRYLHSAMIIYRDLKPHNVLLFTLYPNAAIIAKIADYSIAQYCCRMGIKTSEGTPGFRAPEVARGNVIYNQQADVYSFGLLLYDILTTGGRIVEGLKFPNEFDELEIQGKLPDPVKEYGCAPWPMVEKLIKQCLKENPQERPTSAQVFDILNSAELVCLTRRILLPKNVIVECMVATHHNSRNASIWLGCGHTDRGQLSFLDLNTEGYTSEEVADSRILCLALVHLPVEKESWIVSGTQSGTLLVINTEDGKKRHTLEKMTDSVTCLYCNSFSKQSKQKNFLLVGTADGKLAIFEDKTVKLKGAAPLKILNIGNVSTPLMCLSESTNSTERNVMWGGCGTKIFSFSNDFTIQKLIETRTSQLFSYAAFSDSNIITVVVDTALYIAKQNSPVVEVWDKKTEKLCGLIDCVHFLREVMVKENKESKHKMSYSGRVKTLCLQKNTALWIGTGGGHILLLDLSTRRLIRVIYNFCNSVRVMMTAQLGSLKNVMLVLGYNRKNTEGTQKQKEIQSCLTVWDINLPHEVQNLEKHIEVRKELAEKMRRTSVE

SMILES: COc1cc(C(=O)N2CCC(N3CCN(C)CC3)CC2)ccc1Nc1ncc2c(n1)N(C)c1ccccc1C(=O)N2C [LRRK2-IN1]
- loss of constitutive phosphorylation in cells: The pathogenic G2019S mutation in the kinase domain is phosphorylated and sensitive to the effects of LRRK2-IN1

Reference: article PMC4268884 (Nature communications, 2014)
